Data reported in patent US8143212B2 (Vicuron Pharmaceuticals Inc., priority 2002, dated 2012).

Key:
P aeruginosas = experiment: MIC, microbiological activity (Table 3); assay type: cell-based; conditions: L 4 P aeruginosas ATCC10145; read-out: MIC
[1] = Phase II SSTI trial: safety (adverse events); assay type: in vivo, human
Method: Each patient who received at least one dose of study drug (ITT population) was evaluated for drug safety through monitoring of adverse events (AE), including abnormal clinical laboratory test results and vital signs. AE were rated by the investigator as to their severity (mild, moderate, severe, life-threatening), and by the relationship to the study drug (not related, unlikely related, possibly related, or probably related).

in vitro = assay type: cell-based, S. aureus; conditions: mouse, serum
Excerpt: This degree of binding was considered in subsequent pharmacodynamic analyses. The degree of binding in human serum would be estimated to be 96%.

[2] = rat, in vivo
Method: (§1) Excreta and more than 40 different tissues were collected through 70 days post-administration, and the tissue distribution and pharmacokinetics of drug-derived radioactivity were determined.
Following dose administration, urine and feces were collected at 24 hour intervals to 14, 36, and 70 days after the dose (3 rats/final collection time). Water and methanol cage washes were also collected. Carcasses were analyzed at the end of the collection period. All samples were analyzed for total radioactivity content by liquid scintillation counting (LSC).

[3] = rat, in vivo; remark: listed apart in the source
Method: as §1
Rats (3 per time-point) were euthanized at 12, 24, 48, 72, 96, 120, 144, 168, 336, 840, 1176 and 1680 hours post dose for collection of blood, plasma, and tissues (including carcass). All samples were analyzed by LSC.
As part of the QTD studies, bile samples were collected from bile duct cannulated rats (4 animals) through 384 h (16 days) post-dose.

[4] = system: hepatic cytochrome P450 isoenzymes
in vivo = conditions: Swiss ICR, mouse, plasma, ip
Method: Neutropenia in this and all other studies was produced by injections of cyclophosphamide, 150 mg/kg 4 days prior to study, 100 mg/kg 1 day prior to study and 100 mg/kg every 48 h after start of infection until end of study. Neutrophil counts remained less than 100/mm^3 for the duration of study. Doses of 2.5, 5, 10, 20; 40, and 80 mg/kg were studied. Drug was administered by intraperitoneal injection of 0.2 ml volume. Blood was removed from groups of three mice by retroorbital aspiration into heparinized capillary tubes at 0.5, 1, 2, 4, 6, 24, 48, 72, and 96 hours after dosing. […] AUC was calculated by the trapezoidal rule from mean concentrations.

[5] = Pharmacokinetics and safety in subjects with hepatic impairment (VER001-12); conditions: human, in vivo, intravenous, 1000 mg Day 1 and 500 mg Day 8, Mean (±SD)
Excerpt: The study enrolled otherwise healthy subjects with mild, moderate, or severe hepatic impairment (Child-Pugh scores 5 to 6, 7 to 9, and 10 to 15, respectively) and matched control subjects with normal hepatic function.

S. aureus = experiment: Murine thigh-infection model (time kill, dosing regimen, PK/PD; Tables 31, 32);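 also: mouse thigh infection, bacterial counts per thigh after therapy, dose-response curves fitted with a maximum effect model to give static and 1 or 2 log kill exposures, mean of 4 thighs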
Method: The murine thigh-infection model was used for all organisms throughout the various studies. In this well-established model, approximately 10^6 Cfu of the study organisms are injected into one or both thighs (in 0.1 ml) two hours before starting therapy. The number of organisms in the thigh at the start of therapy in the following studies varied from 10^7.15-7.59 cfu/thigh.
Each point represents the mean of 4 thighs. Five dose levels, ranging 16-fold were used. The dose levels used in the study against S. aureus ranged from 5 to 80 mg/kg.
In these studies, multiple dosing regimens varying the dose and dosage interval were administered intraperitoneally in 0.2 ml volumes to groups of mice for 144 h (6 days). The dosing intervals chosen were 12, 24, 36, and 72 hours. Five different doses (two-fold increases) were used. Study against S. aureus utilized total dose (mg/kg/6d) levels ranging from 30 to 480 mg/kg/6d. […] Each point represents the mean of 4 thighs.
Each of the dose-response curves was also mathematically characterized using a maximum effect model. […] From these parameters we could then calculate the dose required to produce a net bacteriostatic effect over the 144 hour treatment period as well as the doses necessary to produce a 1 and 2 log-reduction in organism burden.
We determined which PK/PD parameter correlated best with efficacy by relating the number of bacteria in thigh at the end of 144 hours of therapy with [1] the peak/MIC ratio, [2] the AUC/MIC ratio, and [3] the percentage of the dosing interval that serum levels exceed the MIC for each of the dosage regimens studied. The PK/PD parameter values for those doses not specifically studied were extrapolated from the values of the nearest studied doses. […] Each point represents the mean of four thighs. […] The data illustrated in these figures were also analyzed by the same maximum dose-response model mentioned above, except that the different PK/PD parameters were used in place of the dose. The R^2 represents the coefficient of determination observed for the relationship between efficacy and each PK/PD parameter.

[6] = Mean ± SD of S. aureus strains, q 24 h regimen
[7] = Mean ± SD of S. aureus strains, q 72 h regimen

CN[C@H]1C(=O)N[C@@H]2Cc3ccc(cc3)Oc3cc4cc(c3O[C@@H]3O[C@H](C(=O)O)[C@@H](O)[C@H](O)[C@H]3NC(=O)CCCCCCCCC(C)C)Oc3ccc(cc3Cl)[C@@H](O)[C@@H]3NC(=O)[C@H](NC(=O)[C@@H]4NC(=O)[C@@H](NC2=O)c2cc(cc(O)c2Cl)Oc2cc1ccc2O)c1ccc(O)c(c1)-c1c(O[C@H]2O[C@H](CO)[C@@H](O)[C@H](O)[C@@H]2O)cc(O)cc1[C@@H](C(=O)NCCCN(C)C)NC3=O [Dalbavancin]
MIC (P aeruginosas): > 32 µg/mL
≧1 AE possibly/probably related to treatment ([1]; Single-dose dalbavancin (N = 20)): 55%
≧1 AE possibly/probably related to treatment ([1]; Two-dose dalbavancin (N = 21)): 48%
AE leading to discontinuation of study medication ([1]; human, in vivo): 0%
clinically significant hepatotoxicity or nephrotoxicity ([1]; in vivo): no evidence
premature discontinuation of treatment due to an AE ([1]; in vivo): No dalbavancin-treated patient discontinued treatment prematurely
serious adverse events related to study drug treatment ([1]; in vivo): no serious adverse events
fraction unbound (in vitro): 0.004
dose remaining in the carcass ([2]; male, Sprague-Dawley, 1680 h): 4.5 % of the dose
share of excreted radioactivity eliminated in feces ([2]; iv, 20 mg/kg): ⅓
share of excreted radioactivity eliminated in urine ([2]; iv, 20 mg/kg): ⅔
blood to plasma ratio of drug-derived radioactivity ([3]; male, Sprague-Dawley): < 1
recovered radioactivity in any single tissue ([3]; male, Sprague-Dawley, 5 days): < 5 % of the dose
administered radioactivity retained in carcass ([3]; male, Sprague-Dawley, 70 days): 2.34%
time to maximum concentration (Cmax) in most tissues [3]: ≤ 24 h
metabolism in vitro [4]: not metabolized
substrate, inhibitor, or inducer of hepatic cytochrome P450 isoenzymes [4]: not a substrate, inhibitor, or inducer
half-life (in vivo): 0.317 to 0.546 days
half-life ([5]; t1/2, Mild Hepatic Impairment (N = 6)): 13.5 days
half-life ([5]; t1/2, Moderate Hepatic Impairment (N = 6)): 13.3 days
half-life ([5]; t1/2, Normal Hepatic Function (N = 9)): 13.4 days
half-life ([5]; t1/2, Severe Hepatic Impairment (N = 5)): 13.4 days
1 Log Kill f24AUC/MBC (S. aureus; MRSA, q 24 h regimen): 109
1 Log Kill f24AUC/MIC (S. aureus; MRSA, q 24 h regimen): 452
1 Log Kill mg/kg/24 h (S. aureus; MRSA, q 24 h regimen): 45.3 mg/kg/24 h
2 Log Kill f24AUC/MBC (S. aureus; MRSA, q 24 h regimen): 125
2 Log Kill f24AUC/MIC (S. aureus; MRSA, q 24 h regimen): 519
2 Log Kill mg/kg/24 h (S. aureus; MRSA, q 24 h regimen): 53.5 mg/kg/24 h
Static Effect f24AUC/MBC (S. aureus; MRSA, q 24 h regimen): 90
Static Effect f24AUC/MIC (S. aureus; MRSA, q 24 h regimen): 374
Static Effect mg/kg/24 h (S. aureus; MRSA, q 24 h regimen): 37.7 mg/kg/24 h
1 Log Kill f24AUC/MBC (S. aureus; MRSA, q 72 h regimen): 48.8
1 Log Kill f24AUC/MIC (S. aureus; MRSA, q 72 h regimen): 202
1 Log Kill mg/kg/24 h (S. aureus; MRSA, q 72 h regimen): 62 mg/kg/24 h
2 Log Kill f24AUC/MBC (S. aureus; MRSA, q 72 h regimen): 70
2 Log Kill f24AUC/MIC (S. aureus; MRSA, q 72 h regimen): 292
2 Log Kill mg/kg/24 h (S. aureus; MRSA, q 72 h regimen): 85 mg/kg/24 h
Static Effect f24AUC/MBC (S. aureus; MRSA, q 72 h regimen): 35.3
Static Effect f24AUC/MIC (S. aureus; MRSA, q 72 h regimen): 147
Static Effect mg/kg/72 h (S. aureus; MRSA, q 72 h regimen): 43 mg/kg/72 h
1 Log Kill f24AUC/MBC (S. aureus; [6]): 86.6 ± 27.6
1 Log Kill f24AUC/MIC (S. aureus; [6]): 268 ± 119
1 Log Kill mg/kg/24 h (S. aureus; [6]): 43.7 ± 9.5 mg/kg/24 h
2 Log Kill f24AUC/MBC (S. aureus; [6]): 110 ± 42
2 Log Kill f24AUC/MIC (S. aureus; [6]): 332 ± 131
2 Log Kill mg/kg/24 h (S. aureus; [6]): 55 ± 14 mg/kg/24 h
Static Effect f24AUC/MBC (S. aureus; [6]): 101 ± 72
Static Effect f24AUC/MIC (S. aureus; [6]): 265 ± 143
Static Effect mg/kg/24 h (S. aureus; [6]): 37.1 ± 9.1 mg/kg/24 h
1 Log Kill f24AUC/MBC (S. aureus; [7]): 75.9 ± 45.2
1 Log Kill f24AUC/MIC (S. aureus; [7]): 213 ± 8.14
1 Log Kill mg/kg/24 h (S. aureus; [7]): 94 ± 46 mg/kg/24 h
2 Log Kill f24AUC/MBC (S. aureus; [7]): 101 ± 61
2 Log Kill f24AUC/MIC (S. aureus; [7]): 266 ± 88
2 Log Kill mg/kg/24 h (S. aureus; [7]): 120 ± 54 mg/kg/24 h
Static Effect f24AUC/MBC (S. aureus; [7]): 55 ± 31
Static Effect f24AUC/MIC (S. aureus; [7]): 160 ± 67
Static Effect mg/kg/72 h (S. aureus; [7]): 72 ± 41 mg/kg/72 h
1 Log Kill f24AUC/MBC (S. aureus; SA25923, q 24 h regimen): 60
1 Log Kill f24AUC/MIC (S. aureus; SA25923, q 24 h regimen): 250
1 Log Kill mg/kg/24 h (S. aureus; SA25923, q 24 h regimen): 51.2 mg/kg/24 h
2 Log Kill f24AUC/MBC (S. aureus; SA25923, q 24 h regimen): 69.3
2 Log Kill f24AUC/MIC (S. aureus; SA25923, q 24 h regimen): 289
2 Log Kill mg/kg/24 h (S. aureus; SA25923, q 24 h regimen): 60 mg/kg/24 h
Static Effect f24AUC/MBC (S. aureus; SA25923, q 24 h regimen): 52
Static Effect f24AUC/MIC (S. aureus; SA25923, q 24 h regimen): 216
Static Effect mg/kg/24 h (S. aureus; SA25923, q 24 h regimen): 42.7 mg/kg/24 h
1 Log Kill f24AUC/MBC (S. aureus; SA25923, q 72 h regimen): 76.1
1 Log Kill f24AUC/MIC (S. aureus; SA25923, q 72 h regimen): 317
1 Log Kill mg/kg/24 h (S. aureus; SA25923, q 72 h regimen): 185 mg/kg/24 h
2 Log Kill f24AUC/MBC (S. aureus; SA25923, q 72 h regimen): 88.1
